Test results from patent US12365687B2 (Hoffmann-La Roche Inc., priority 2021, dated 2025).

Columns and labels:
[1] = biological target: human GABAA α1β3γ2 receptor (Homo sapiens (Human), UniProt P14867+P18507); assay: Radioligand binding assay for γ2-containing GABAA subtypes, [3H]Flumazenil competition (α1β3γ2); details: for γ2/γ1 Selectivity Ratio: Ki α1β3γ2 (nM)/Ki α2β2γ1 (nM); for LogSel: Log[Ki α1β3γ2 (nM)/Ki α2β2γ1 (nM)]
[2] = biological target: α2β2γ1 GABAA receptor subtype (Homo sapiens (Human), UniProt P47869+Q8N1C3); assay: Two-electrode voltage clamp electrophysiology in Xenopus oocytes expressing GABAA receptors (modulation of GABA EC20 current); type: cell-based; details: for Efficacy (GABA)%: % modulation of GABA EC20 = 100*(Fold increase-1), α2β2γ1 oocytes, compound at approx. 30-fold Ki; for Fold increase h-GABA-A α2β2γ1 oocyte @ 30-fold Ki: Xenopus oocytes expressing α2β2γ1, compound at approx. 30-fold its Ki α2β2γ1, GABA EC20 current
Outline: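 Each concentration was tested on ≥3 oocytes held at −80 mV at room temperature, recorded 3-5 days post-injection. A control and a test response to EC20 GABA (1.5 min each) were superimposed and their point-by-point ratio taken. Peak ratio reported as % modulation of GABA EC20 = 100×(fold increase−1).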

[3] = biological target: human GABAA α5β2γ1 receptor (Homo sapiens (Human), UniProt P31644+Q8N1C3); assay: Radioligand binding assay for γ1-containing GABAA subtypes, [3H]RO7239181 competition (α5β2γ1)
[4] = biological target: human GABAA α1β2γ1 receptor (Homo sapiens (Human), UniProt P14867+Q8N1C3); assay: Radioligand binding assay for γ1-containing GABAA subtypes, [3H]RO7239181 competition (α1β2γ1)
Protocol: The affinity of compounds at GABAA γ1 subunit-containing receptors was measured by competition for [^3H]RO7239181 (67.3 Ci/mmol; Roche) binding to membranes from HEK293F cells (ThermoFisher R79007) expressing human (transiently transfected) receptors of composition α5β2γ1, α2β2γ1, α1β2γ1.
Harvested pellets from HEK293F cells expressing the different GABAA receptor subtypes were resuspended in Mannitol Buffer pH 7.2-7.4 (Mannitol 0.29 M, Triethylamine 10 mM, Acetic acid 10 mM, EDTA 1 mM plus protease inhibitors (20 tablets Complete, Roche Diagnostics Cat. No. 05 056 489 001 per liter)), washed two times and then resuspended at 1:10 to 1:15 dilution in the same buffer. Cell disruption was performed by stirring the suspension in a Parr vessel #4637 at 435 psi for 15 minutes, and then the suspensions were centrifuged at 1000×g for 15 minutes at 4° C. (Beckman Avanti J-HC; rotor JS-4.2). The supernatant (S1) was transferred in a 2 l Schott flask and the pellet (P1) was resuspended with Mannitol Buffer up to 175 ml. The resuspended pellet was transferred into a 250 ml Corning centrifugal beaker and centrifuged at 1500×g for 10 minutes at 4° C. (Beckman Avanti J-HC; rotor JS-4.2). The supernatant (S1) was then transferred in the 2 l Schott flask and the pellet was discarded. The supernatants (S1) were centrifuged in 500 ml Beckman polypropylene centrifugal beaker at 15′000×g for 30 minutes at 4° C. (Beckman Avanti J-20 XP; rotor JLA-10.500). The pellet (P2) was resuspended with Mannitol Buffer 1:1 and frozen at −80° C. The supernatant (S2) was centrifuged in 100 ml Beckman polypropylene centrifugal tubes at 48000×g for 50 minutes at 4° C. (Beckman Avanti J-20 XP; rotor JA-18). The supernatant (S3) was discarded and the pellet (P3) was resuspended with 1:1 Mannitol Buffer. The P2 and P3 protein concentration was determined with the BIORAD Standard assay method with bovine serum albumin as standard and measured on the NANO-Drop 1000. The membrane suspension was aliquots (500 μl per tube) and stored at −80° C. until required.
Membrane homogenates were resuspended and polytronised (Polytron PT1200E Kinematica AG) in Potassium Phosphate 10 mM, KCl 100 mM binding buffer at pH 7.4 to a final assay concentration determined with a previous experiment.
Assays were incubated to equilibrium for 1 hour at 4° C. and then, membranes were filtered onto unifilter (96-well white microplate with bonded GF/C filters preincubated 20-50 minutes in 0.3% Polyethylenimine) with a Filtermate 196 harvester (Packard BioScience) and washed 4 times with cold Potassium Phosphate 10 mM pH 7.4, KCl 100 mM binding buffer. After anhydrousing, filter-retained radioactivity was detected by liquid scintillation counting. Ki values were calculated using Excel-Fit (Microsoft) and are the means of two determinations.

[5] = biological target: human GABAA α2β2γ1 receptor (Homo sapiens (Human), UniProt P47869+Q8N1C3); assay: Radioligand binding assay for γ1-containing GABAA subtypes, [3H]RO7239181 competition (α2β2γ1)
[6] = Ki h-GABAA α2β2γ1, [3H]RO7239181 competition binding, human GABAA α2β2γ1
[7] = Ki h-GABAA α2β2γ1, displacement of [3H]RO7239181, membranes of HEK293F cells expressing human receptors, means of two determinations

Row | Structure (SMILES) | Ki [1] | γ2/γ1 Selectivity Ratio [1] | LogSel [1] | Efficacy (GABA)% [2] | Fold increase h-GABA-A α2β2γ1 oocyte @ 30-fold Ki [2] | Ki [3] | Ki [4] | Ki [5, 6] | Ki [5, 7]
1 | C[C@@H]1N=C(c2c(F)cccc2F)c2c(ccc(C(F)(F)F)c2Cl)-n2nc(C(=O)N3CCS(=O)(=O)CC3)nc21 [Example 114, [(4S)-7-chloro-6-(2,6-difluorophenyl)-4-methyl-8-(trifluoromethyl)-4H-[1,2,4]triazolo[1,5-a][1,4]benzodiazepin-2-yl]-(1,1-dioxo-1,4-thiazinan-4-yl)methanone] | 3090 nM | 325.5 | 2.51 | 88% | 1.88 | 3.73 nM | 23.2 nM | 9.5 nM | 9.5 nM
2 | C[C@@H]1N=C(c2c(F)cccc2F)c2c(ccc(C(F)(F)F)c2Cl)-n2nc(C(=O)NCCO)nc21 [Example 107, (4S)-7-chloro-6-(2,6-difluorophenyl)-N-(2-hydroxyethyl)-4-methyl-8-(trifluoromethyl)-4H-[1,2,4]triazolo[1,5-a][1,4]benzodiazepine-2-carboxamide] | 3700 nM | 319.1 | 2.50 | 103% | 2.03 | 2.5 nM | 65.1 nM | 14 nM | 11.6 nM
3 | COC1CN(C(=O)c2cn3c(n2)CN=C(c2ccccc2F)c2c-3ccc(Cl)c2Cl)C1 [Example 1, (7,8-dichloro-6-(2-fluorophenyl)-4H-benzo[f]imidazo[1,2-a][1,4]diazepin-2-yl)(3-methoxyazetidin-1-yl)methanone] | 638 nM | 25.5 | 1.41 | 77% | 1.77 | 3.19 nM | 35.1 nM | 25 nM | 25 nM
4 | COC1CN(C(=O)c2nc3n(n2)-c2ccc(Cl)c(Cl)c2C(c2c(F)cccc2F)=N[C@H]3C)C1 [Example 16, [(4S)-7,8-dichloro-6-(2,6-difluorophenyl)-4-methyl-4H-[1,2,4]triazolo[1,5-a][1,4]benzodiazepin-2-yl]-(3-methoxyazetidin-1-yl)methanone] | 571 nM | 109.6 | 2.04 | 52% | 1.52 | 1.2 nM | 9.2 nM | 5.2 nM | 5.2 nM
5 | C[C@@H]1N=C(c2ncccc2F)c2c(ccc(C(F)(F)F)c2Cl)-n2nc(C(=O)N3CCC3)nc21 [Example 85, azetidin-1-yl-[(4S)-7-chloro-6-(3-fluoro-2-pyridyl)-4-methyl-8-(trifluoromethyl)-4H-[1,2,4]triazolo[1,5-a][1,4]benzodiazepin-2-yl]methanone] | 8860 nM | 145.5 | 2.16 | 140% | 2.40 | 8.51 nM | 224 nM | 60.9 nM | 60.9 nM
6 | COC1CN(C(=O)c2nc3n(n2)-c2ccc(C(F)(F)F)c(Cl)c2C(c2c(F)cccc2F)=N[C@H]3C)C1 [Example 23] | 1140 nM | 96.8 | – | 63% | – | 1.63 nM | 29 nM | 11.8 nM | 11.8 nM
7 | COC1CN(C(=O)c2nc3n(n2)-c2ccc(C(F)(F)F)c(Cl)c2C(c2ncccc2F)=N[C@H]3C)C1 [Example 103, [(4S)-7-chloro-6-(3-fluoro-2-pyridyl)-4-methyl-8-(trifluoromethyl)-4H-[1,2,4]triazolo[1,5-a][1,4]benzodiazepin-2-yl]-(3-methoxyazetidin-1-yl)methanone] | > 30000 nM | 1183.4 | 3.07 | 113% | 2.13 | 9.87 nM | 178 nM | 25.4 nM | 25.3 nM
8 | C[C@@H]1N=C(c2c(F)cccc2F)c2c(ccc(C(F)(F)F)c2Cl)-n2nc(N3CCOC3=O)nc21 [Example 121, 3-[(4S)-7-chloro-6-(2,6-difluorophenyl)-4-methyl-8-(trifluoromethyl)-4H-[1,2,4]triazolo[1,5-a][1,4]benzodiazepin-2-yl]oxazolidin-2-one] | 1210 nM | 218.2 | 2.34 | 52% | 1.52 | 1.43 nM | 39.1 nM | 5.5 nM | 5.5 nM
9 | Cc1nc2n(n1)-c1ccc(Cl)c(Cl)c1C(c1c(F)cccc1F)=N[C@H]2C [Example 21, (4S)-7,8-dichloro-6-(2,6-difluorophenyl)-2,4-dimethyl-4H-[1,2,4]triazolo[1,5-a][1,4]benzodiazepine] | 244 nM | 55.0 | 1.74 | 67% | 1.67 | 0.69 nM | 8.3 nM | 4.4 nM | 4.43 nM
10 | C[C@H](O)CNC(=O)c1nc2n(n1)-c1ccc(C(F)(F)F)c(Cl)c1C(c1c(F)cccc1F)=N[C@H]2C [Example 109, (4S)-7-chloro-6-(2,6-difluorophenyl)-N-[(2S)-2-hydroxypropyl]-4-methyl-8-(trifluoromethyl)-4H-[1,2,4]triazolo[1,5-a][1,4]benzodiazepine-2-carboxamide] | 3120 nM | 258.7 | 2.41 | 126% | 2.26 | 3.07 nM | 40.8 nM | 12.1 nM | 12.1 nM
11 | C[C@@H]1N=C(c2c(F)cccc2F)c2c(ccc(C(F)(F)F)c2Cl)-n2nc(C(=O)NCCF)nc21 [Example 106, (4S)-7-chloro-6-(2,6-difluorophenyl)-N-(2-fluoroethyl)-4-methyl-8-(trifluoromethyl)-4H-[1,2,4]triazolo[1,5-a][1,4]benzodiazepine-2-carboxamide] | 4190 nM | 185.1 | 2.27 | 90% | 1.90 | 2.94 nM | 104 nM | 22.6 nM | 22.6 nM
12 | Cc1nnc(-c2nc3n(n2)-c2ccc(C(F)(F)F)c(Cl)c2C(c2ncccc2F)=N[C@H]3C)o1 [Example 144, 2-[(4S)-7-chloro-6-(3-fluoro-2-pyridyl)-4-methyl-8-(trifluoromethyl)-4H-[1,2,4]triazolo[1,5-a][1,4]benzodiazepin-2-yl]-5-methyl-1,3,4-oxadiazole] | 13500 nM | 183.6 | 2.26 | 169% | 2.69 | 8.3 nM | 179 nM | 73.5 nM | 73.5 nM
